# Laboratory results reported in patent US11767310B2, “Nicotinamide RIPK1 inhibitors” (AbbVie Inc., priority 2021, dated 2023).
# Like-named read-outs stand apart in the source and are kept apart here.
# Assays:
# Assay in all cases: Kinase binding screen
# Details in all cases: read-out: Percent Control at 100 nM Compound Concentration
# EPHB2 = EPHB2 (Homo sapiens (Human), UniProt P29323)
# ERBB4 = ERBB4 (Homo sapiens (Human), UniProt Q15303)
# LIMK2 = LIMK2 (Homo sapiens (Human), UniProt P53671)
# YANK1 = YANK1 (Homo sapiens (Human), UniProt Q8WU08)
# Chain of YANK1 (Q8WU08 whole entry): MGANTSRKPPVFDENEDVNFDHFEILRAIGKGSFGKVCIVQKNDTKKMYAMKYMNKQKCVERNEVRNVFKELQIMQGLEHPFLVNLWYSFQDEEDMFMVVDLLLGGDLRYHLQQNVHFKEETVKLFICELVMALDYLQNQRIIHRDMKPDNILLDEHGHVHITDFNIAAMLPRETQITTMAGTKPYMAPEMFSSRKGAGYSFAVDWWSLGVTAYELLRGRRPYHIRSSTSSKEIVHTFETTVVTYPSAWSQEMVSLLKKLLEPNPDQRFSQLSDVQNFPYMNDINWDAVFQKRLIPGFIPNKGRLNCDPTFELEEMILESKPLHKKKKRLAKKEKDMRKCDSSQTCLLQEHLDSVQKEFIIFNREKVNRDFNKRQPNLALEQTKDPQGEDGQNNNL
# ZAK = ZAK (Homo sapiens (Human), UniProt Q9NYL2)
# Chain of ZAK (Q9NYL2 whole entry): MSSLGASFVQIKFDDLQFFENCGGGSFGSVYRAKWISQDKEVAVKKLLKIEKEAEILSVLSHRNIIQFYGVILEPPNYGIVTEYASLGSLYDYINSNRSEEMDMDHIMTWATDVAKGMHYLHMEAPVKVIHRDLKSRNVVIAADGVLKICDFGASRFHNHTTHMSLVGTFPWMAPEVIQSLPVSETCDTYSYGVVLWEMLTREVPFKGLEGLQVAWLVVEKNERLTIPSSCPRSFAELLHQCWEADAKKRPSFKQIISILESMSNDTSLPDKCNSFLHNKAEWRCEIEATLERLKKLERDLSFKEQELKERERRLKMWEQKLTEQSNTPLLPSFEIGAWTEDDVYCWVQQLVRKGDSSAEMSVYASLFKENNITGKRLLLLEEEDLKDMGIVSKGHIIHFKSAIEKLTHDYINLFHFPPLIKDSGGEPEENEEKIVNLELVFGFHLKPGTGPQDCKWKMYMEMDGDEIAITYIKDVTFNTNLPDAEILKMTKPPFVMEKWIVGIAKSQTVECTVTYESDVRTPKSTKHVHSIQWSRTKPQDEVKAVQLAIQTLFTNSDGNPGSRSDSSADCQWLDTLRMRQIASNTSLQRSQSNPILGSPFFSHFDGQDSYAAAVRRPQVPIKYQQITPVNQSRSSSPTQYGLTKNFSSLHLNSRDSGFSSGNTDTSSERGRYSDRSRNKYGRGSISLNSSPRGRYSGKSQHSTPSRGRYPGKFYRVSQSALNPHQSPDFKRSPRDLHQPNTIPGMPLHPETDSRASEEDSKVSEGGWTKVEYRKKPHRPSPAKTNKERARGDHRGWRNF
# ACVR1B = ACVR1B (Homo sapiens (Human), UniProt P36896)
# BRSK2 = BRSK2 (Homo sapiens (Human), UniProt Q8IWQ3)
# TBK1 = TBK1 (Homo sapiens (Human), UniProt Q9UHD2)
# AKT2 = AKT2 (Homo sapiens (Human), UniProt P31751)
# RIPK1 = RIPK1 (Homo sapiens (Human), UniProt Q13546)
# CAMK2D = CAMK2D (Homo sapiens (Human), UniProt Q13557)
# MERTK = MERTK (Homo sapiens (Human), UniProt Q12866)
# Chain of MERTK (Q12866 21-999): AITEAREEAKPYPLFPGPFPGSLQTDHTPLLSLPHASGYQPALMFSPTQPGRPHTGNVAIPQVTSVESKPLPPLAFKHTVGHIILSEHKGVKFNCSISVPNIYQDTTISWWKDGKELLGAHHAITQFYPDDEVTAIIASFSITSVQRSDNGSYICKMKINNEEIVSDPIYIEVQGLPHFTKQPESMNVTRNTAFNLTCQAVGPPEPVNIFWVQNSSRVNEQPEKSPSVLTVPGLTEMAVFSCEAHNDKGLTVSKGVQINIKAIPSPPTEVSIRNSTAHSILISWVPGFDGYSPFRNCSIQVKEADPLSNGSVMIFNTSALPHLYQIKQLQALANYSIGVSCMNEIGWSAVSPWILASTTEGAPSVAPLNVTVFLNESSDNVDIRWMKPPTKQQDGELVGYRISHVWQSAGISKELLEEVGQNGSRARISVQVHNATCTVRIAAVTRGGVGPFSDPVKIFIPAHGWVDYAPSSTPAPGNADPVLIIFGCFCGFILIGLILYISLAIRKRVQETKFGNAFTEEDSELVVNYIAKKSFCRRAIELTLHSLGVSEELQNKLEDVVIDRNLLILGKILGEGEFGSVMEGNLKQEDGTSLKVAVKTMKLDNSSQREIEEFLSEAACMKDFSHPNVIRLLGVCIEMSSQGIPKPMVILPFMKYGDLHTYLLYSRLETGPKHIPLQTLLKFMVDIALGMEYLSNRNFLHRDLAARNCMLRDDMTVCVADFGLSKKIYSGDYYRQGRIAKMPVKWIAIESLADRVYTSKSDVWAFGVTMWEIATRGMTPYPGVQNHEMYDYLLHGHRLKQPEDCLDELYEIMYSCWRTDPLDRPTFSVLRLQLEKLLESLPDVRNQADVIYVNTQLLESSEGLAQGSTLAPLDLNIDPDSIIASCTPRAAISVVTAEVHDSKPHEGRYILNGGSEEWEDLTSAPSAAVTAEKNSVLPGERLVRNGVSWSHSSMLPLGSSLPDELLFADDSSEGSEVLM
# MKNK2 = MKNK2 (Homo sapiens (Human), UniProt Q9HBH9)
# GRK1 = GRK1 (Homo sapiens (Human), UniProt Q15835)
# NLK = NLK (Homo sapiens (Human), UniProt Q9UBE8)
# NIM1 = NIM1 (Homo sapiens (Human), UniProt Q8IY84)
# MAP3K2 = MAP3K2 (Homo sapiens (Human), UniProt Q9Y2U5)
# Chain of MAP3K2 (Q9Y2U5 whole entry): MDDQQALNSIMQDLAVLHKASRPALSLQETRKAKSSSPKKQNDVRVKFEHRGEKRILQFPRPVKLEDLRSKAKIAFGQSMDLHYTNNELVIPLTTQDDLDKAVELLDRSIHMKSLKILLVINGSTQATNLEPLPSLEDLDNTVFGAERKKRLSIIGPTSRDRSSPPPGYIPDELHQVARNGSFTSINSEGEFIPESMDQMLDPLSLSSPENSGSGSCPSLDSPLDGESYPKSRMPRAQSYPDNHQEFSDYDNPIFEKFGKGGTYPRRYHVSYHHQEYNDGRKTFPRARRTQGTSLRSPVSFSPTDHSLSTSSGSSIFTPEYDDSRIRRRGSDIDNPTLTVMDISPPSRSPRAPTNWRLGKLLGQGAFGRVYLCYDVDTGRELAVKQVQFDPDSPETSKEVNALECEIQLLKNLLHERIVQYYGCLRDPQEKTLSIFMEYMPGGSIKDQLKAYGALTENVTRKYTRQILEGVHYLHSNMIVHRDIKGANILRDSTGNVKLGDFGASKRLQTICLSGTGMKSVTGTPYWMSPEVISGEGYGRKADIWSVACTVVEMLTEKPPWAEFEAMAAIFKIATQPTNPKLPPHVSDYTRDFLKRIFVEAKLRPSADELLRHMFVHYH
# AMPK-alpha1 = AMPK-alpha1 (Homo sapiens (Human), UniProt Q13131)
# [1] = biological target: RSK2(Kin.Dom.1-N-terminal) (Homo sapiens (Human), UniProt P51812)
# AKT1 = AKT1 (Homo sapiens (Human), UniProt P31749)
# PFTK1 = PFTK1 (Homo sapiens (Human), UniProt O94921)
# FYN = FYN (Homo sapiens (Human), UniProt P06241)
# CSF1R-autoinhibited = CSF1R-autoinhibited (Homo sapiens (Human), UniProt P07333)
# Chain of CSF1R-autoinhibited (P07333 539-972 limits assumed): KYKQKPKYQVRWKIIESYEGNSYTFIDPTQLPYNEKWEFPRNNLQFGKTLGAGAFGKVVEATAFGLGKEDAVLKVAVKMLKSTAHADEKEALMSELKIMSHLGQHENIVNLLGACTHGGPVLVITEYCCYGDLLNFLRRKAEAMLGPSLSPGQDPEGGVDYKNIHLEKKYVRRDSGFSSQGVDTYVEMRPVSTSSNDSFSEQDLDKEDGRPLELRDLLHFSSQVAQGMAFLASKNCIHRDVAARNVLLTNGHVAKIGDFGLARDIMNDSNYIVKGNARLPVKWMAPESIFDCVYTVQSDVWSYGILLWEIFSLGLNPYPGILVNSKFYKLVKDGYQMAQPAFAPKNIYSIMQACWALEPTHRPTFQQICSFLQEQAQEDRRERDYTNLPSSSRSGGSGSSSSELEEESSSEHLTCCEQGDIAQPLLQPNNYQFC
# KIT(L576P) = KIT(L576P) (Homo sapiens (Human), UniProt P10721, L576P)
# CDK4-cyclinD3 = CDK4-cyclinD3 (Homo sapiens (Human), UniProt P11802)
# Chain of CDK4-cyclinD3 (P11802 whole entry): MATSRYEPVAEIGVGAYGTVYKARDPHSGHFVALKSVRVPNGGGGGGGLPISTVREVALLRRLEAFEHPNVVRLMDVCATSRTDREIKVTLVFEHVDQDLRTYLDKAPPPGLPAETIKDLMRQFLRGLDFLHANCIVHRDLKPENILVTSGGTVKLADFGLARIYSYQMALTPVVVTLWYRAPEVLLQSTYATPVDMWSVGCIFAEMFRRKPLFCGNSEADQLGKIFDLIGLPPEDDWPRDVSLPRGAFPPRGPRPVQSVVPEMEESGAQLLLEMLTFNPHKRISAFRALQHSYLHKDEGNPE
# Chain of CDK4-cyclinD3 (P30281 whole entry partner): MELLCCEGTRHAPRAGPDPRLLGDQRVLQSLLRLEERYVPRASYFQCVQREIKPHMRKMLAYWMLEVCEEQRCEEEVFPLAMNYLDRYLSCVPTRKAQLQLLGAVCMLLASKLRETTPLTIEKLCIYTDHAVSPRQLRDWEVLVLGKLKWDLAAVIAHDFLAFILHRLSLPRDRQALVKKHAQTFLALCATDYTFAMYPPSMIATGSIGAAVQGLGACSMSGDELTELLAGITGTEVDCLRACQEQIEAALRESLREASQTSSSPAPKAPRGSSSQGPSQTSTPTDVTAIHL
# CDC2L2 = CDC2L2 (Homo sapiens (Human), UniProt Q9UQ88)
# BMX = BMX (Homo sapiens (Human), UniProt P51813)
# ERBB2 = ERBB2 (Homo sapiens (Human), UniProt P04626)
# EPHA5 = EPHA5 (Homo sapiens (Human), UniProt P54756)
# Chain of EPHA5 (P54756 25-1037): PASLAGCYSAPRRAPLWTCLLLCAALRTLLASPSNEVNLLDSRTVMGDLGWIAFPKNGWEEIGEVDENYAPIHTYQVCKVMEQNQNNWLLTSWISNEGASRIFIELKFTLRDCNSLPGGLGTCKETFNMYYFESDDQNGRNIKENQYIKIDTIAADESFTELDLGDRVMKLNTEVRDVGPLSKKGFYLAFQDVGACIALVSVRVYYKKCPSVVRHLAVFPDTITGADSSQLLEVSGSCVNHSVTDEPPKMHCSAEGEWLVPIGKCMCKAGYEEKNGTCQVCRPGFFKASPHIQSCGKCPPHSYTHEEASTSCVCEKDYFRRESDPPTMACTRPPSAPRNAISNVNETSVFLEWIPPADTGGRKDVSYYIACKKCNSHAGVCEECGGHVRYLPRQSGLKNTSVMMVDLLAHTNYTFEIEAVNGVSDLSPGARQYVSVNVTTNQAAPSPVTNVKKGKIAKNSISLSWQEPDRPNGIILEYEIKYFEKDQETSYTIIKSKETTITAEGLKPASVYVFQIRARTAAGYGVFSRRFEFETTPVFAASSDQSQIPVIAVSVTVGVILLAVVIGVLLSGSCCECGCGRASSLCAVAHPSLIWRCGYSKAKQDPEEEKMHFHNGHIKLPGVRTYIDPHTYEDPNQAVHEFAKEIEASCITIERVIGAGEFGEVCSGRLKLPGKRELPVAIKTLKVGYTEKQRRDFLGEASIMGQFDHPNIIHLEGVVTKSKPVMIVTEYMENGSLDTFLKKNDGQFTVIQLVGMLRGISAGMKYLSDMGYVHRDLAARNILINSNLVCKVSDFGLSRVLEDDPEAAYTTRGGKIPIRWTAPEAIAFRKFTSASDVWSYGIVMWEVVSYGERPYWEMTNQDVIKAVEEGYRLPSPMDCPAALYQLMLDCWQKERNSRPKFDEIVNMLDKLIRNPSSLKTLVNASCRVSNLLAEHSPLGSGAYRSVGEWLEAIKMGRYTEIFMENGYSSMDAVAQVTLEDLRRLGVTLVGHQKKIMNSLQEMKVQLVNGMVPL
smiles,measurement,setting,value
"CN(C[C@@H](O)Cc1ccccc1)C(=O)c1cncc(C#Cc2cnn(C(F)F)c2)c1 [Example 2, (S)-5-((1-(difluoromethyl)-1H-pyrazol-4-yl)ethynyl)-N-(2-hydroxy-3-phenylpropyl)-N-methylnicotinamide]",remaining activity at 0.1 µM,EPHB2; EPHB2,100%
same,remaining activity at 0.1 µM,ERBB4; ERBB4,94%
same,remaining activity at 0.1 µM,LIMK2; LIMK2,95%
same,remaining activity at 0.1 µM,YANK1; YANK1,100%
same,remaining activity at 0.1 µM,ZAK; ZAK,100%
same,remaining activity at 0.1 µM,ACVR1B; ACVR1B,100%
same,remaining activity at 0.1 µM,BRSK2; BRSK2,96%
same,remaining activity at 0.1 µM,TBK1; TBK1,79%
same,remaining activity at 0.1 µM,AKT2; AKT2,99%
same,remaining activity at 0.1 µM,RIPK1; RIPK1,26%
same,remaining activity at 0.1 µM,CAMK2D; CAMK2D,100%
same,remaining activity at 0.1 µM,MERTK; MERTK,100%
same,remaining activity at 0.1 µM,MKNK2; MKNK2,82%
same,remaining activity at 0.1 µM,GRK1; GRK1,100%
same,remaining activity at 0.1 µM,NLK; NLK,100%
same,remaining activity at 0.1 µM,NIM1; NIM1,89%
same,remaining activity at 0.1 µM,MAP3K2; MAP3K2,99%
same,remaining activity at 0.1 µM,AMPK-alpha1; AMPK-alpha1,100%
same,remaining activity at 0.1 µM,[1]; RSK2(Kin.Dom.1-N-terminal),100%
same,remaining activity at 0.1 µM,AKT1; AKT1,100%
same,remaining activity at 0.1 µM,PFTK1; PFTK1,100%
same,remaining activity at 0.1 µM,FYN; FYN,100%
same,remaining activity at 0.1 µM,CSF1R-autoinhibited; CSF1R-autoinhibited,99%
same,remaining activity at 0.1 µM,KIT(L576P); KIT(L576P),100%
same,remaining activity at 0.1 µM,CDK4-cyclinD3; CDK4-cyclinD3,100%
same,remaining activity at 0.1 µM,CDC2L2; CDC2L2,100%
same,remaining activity at 0.1 µM,BMX; BMX,100%
same,remaining activity at 0.1 µM,ERBB2; ERBB2,70%
same,remaining activity at 0.1 µM,EPHA5; EPHA5,100%
"CN(C[C@H](Cc1ccccc1)OP(=O)(O)O)C(=O)c1cncc(C#Cc2cnn(C(F)F)c2)c1 [Example 19, (S)-1-(5-((1-(difluoromethyl)-1H-pyrazol-4-yl)ethynyl)-N-methylnicotinamido)-3-phenylpropan-2-yl dihydrogen phosphate]",remaining activity at 0.1 µM,EPHB2,100%
same,remaining activity at 0.1 µM,ERBB4,93%
same,remaining activity at 0.1 µM,LIMK2,93%
same,remaining activity at 0.1 µM,YANK1,100%
same,remaining activity at 0.1 µM,ZAK,100%
same,remaining activity at 0.1 µM,ACVR1B,100%
same,remaining activity at 0.1 µM,BRSK2,95%
same,remaining activity at 0.1 µM,TBK1,84%
same,remaining activity at 0.1 µM,AKT2,90%
same,remaining activity at 0.1 µM,RIPK1,91%
same,remaining activity at 0.1 µM,CAMK2D,100%
same,remaining activity at 0.1 µM,MERTK,100%
same,remaining activity at 0.1 µM,MKNK2,79%
same,remaining activity at 0.1 µM,GRK1,98%
same,remaining activity at 0.1 µM,NLK,100%
same,remaining activity at 0.1 µM,NIM1,89%
same,remaining activity at 0.1 µM,MAP3K2,95%
same,remaining activity at 0.1 µM,AMPK-alpha1,100%
same,remaining activity at 0.1 µM,[1],94%
same,remaining activity at 0.1 µM,AKT1,100%
same,remaining activity at 0.1 µM,PFTK1,100%
same,remaining activity at 0.1 µM,FYN,100%
same,remaining activity at 0.1 µM,CSF1R-autoinhibited,99%
same,remaining activity at 0.1 µM,KIT(L576P),98%
same,remaining activity at 0.1 µM,CDK4-cyclinD3,100%
same,remaining activity at 0.1 µM,CDC2L2,100%
same,remaining activity at 0.1 µM,BMX,100%
same,remaining activity at 0.1 µM,ERBB2,65%
same,remaining activity at 0.1 µM,EPHA5,100%
